Experimental data taken from ChEMBL document CHEMBL1142990, “Self-organizing maps for identification of new inhibitors of P-glycoprotein” (J Med Chem, 2007).

Target: ATP-dependent translocase ABCB1 (Homo sapiens, UniProt P08183)
Test: Inhibition of P-glycoprotein expressed in MDR CCRF vcr1000 cells by daunorubicin efflux assay

Sequence of ATP-dependent translocase ABCB1 (P08183 whole entry): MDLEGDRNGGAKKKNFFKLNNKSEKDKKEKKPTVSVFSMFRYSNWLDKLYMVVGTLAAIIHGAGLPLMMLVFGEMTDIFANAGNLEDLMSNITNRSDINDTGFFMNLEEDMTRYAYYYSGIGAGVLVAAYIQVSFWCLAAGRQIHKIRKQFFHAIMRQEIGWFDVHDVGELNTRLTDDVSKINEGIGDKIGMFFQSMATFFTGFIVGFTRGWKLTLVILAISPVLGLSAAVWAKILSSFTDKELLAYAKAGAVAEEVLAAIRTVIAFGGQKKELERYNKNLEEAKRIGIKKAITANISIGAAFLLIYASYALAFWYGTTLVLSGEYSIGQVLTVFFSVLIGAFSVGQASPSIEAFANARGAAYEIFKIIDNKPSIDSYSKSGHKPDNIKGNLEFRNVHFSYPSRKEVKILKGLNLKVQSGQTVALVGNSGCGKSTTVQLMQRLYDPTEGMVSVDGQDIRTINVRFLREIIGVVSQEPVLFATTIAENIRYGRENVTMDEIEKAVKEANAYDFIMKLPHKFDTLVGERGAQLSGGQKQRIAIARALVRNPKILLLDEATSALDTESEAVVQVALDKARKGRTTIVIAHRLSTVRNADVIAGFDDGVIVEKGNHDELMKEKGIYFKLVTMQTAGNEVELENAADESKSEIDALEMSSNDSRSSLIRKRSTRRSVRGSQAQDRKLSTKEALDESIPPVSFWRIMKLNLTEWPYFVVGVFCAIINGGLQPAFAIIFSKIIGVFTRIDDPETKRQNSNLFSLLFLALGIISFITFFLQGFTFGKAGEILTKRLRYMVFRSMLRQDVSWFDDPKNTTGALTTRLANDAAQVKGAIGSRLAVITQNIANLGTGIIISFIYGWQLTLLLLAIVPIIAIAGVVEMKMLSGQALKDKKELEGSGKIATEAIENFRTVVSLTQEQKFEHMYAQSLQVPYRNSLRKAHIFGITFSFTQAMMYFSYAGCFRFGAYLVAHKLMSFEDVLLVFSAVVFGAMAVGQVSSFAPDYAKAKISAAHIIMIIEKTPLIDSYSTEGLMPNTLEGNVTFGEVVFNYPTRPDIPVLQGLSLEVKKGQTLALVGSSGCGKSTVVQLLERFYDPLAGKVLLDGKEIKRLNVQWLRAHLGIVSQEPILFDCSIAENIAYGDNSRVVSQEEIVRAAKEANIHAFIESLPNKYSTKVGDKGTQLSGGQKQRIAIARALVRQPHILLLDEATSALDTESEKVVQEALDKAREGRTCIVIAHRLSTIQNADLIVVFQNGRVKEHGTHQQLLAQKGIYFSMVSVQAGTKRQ

Row | EC50 | SMILES
1 | 11500 nM | CCCNCC(O)c1oc2ccccc2c1CC (stereo not drawn)
2 | 2480 nM | CN(C)CC(O)COc1ccccc1C(=O)CCc1ccccc1 (stereo not drawn)
3 | 2090 nM | CC(=O)c1ccccc1OCC(O)CN1CCN(c2ccc(F)cc2)CC1 (stereo not drawn)
4 | 67000 nM | CCC(=O)c1ccccc1OCC(O)CN1CCOCC1 (stereo not drawn)
5 | 116 nM | O=C(CCc1ccccc1)c1cc(OCc2ccccc2)ccc1OCC(O)CN1CCN(Cc2ccccc2)CC1 (stereo not drawn)
6 | 797 nM | O=C(CCc1ccccc1)c1ccccc1OCC(O)CNCC(c1ccccc1)c1ccccc1 (stereo not drawn)
7 | 6880 nM | O=C(CCc1ccccc1)c1ccc(OCC(O)CN2CCOCC2)cc1 (stereo not drawn)
8 | 341 nM | O=C(CCc1ccccc1)c1ccccc1OCC(O)CNC1CCCCC1 (stereo not drawn)
9 | 1120 nM | O=C(CCc1ccccc1)c1cccc(OCC(O)CN2CCN(c3ccc(F)cc3)CC2)c1 (stereo not drawn)
10 | 424 nM | O=C(CCc1ccccc1)c1cccc(OCC(O)CN2CCCCC2)c1 (stereo not drawn)
11 | 658 nM | COC(CCc1ccccc1)c1ccccc1OCC(O)CN(C(C)C)C(C)C (stereo not drawn)
12 | 226 nM | COC(CCc1ccccc1)c1ccccc1OCC(O)CN1CCN(c2ccc(F)cc2)CC1 (stereo not drawn)
13 | 173 nM | COC(CCc1ccccc1)c1ccccc1OCC(O)CN1CCCCC1 (stereo not drawn)
14 | 678 nM | COc1cccc(N2CCN(CC(O)COc3ccccc3C(=O)CCc3ccccc3)CC2)c1 (stereo not drawn)
15 | 671 nM | OC(COc1ccccc1C(O)CCc1ccccc1)CN1CCN(c2ccc(F)cc2)CC1 (stereo not drawn)
16 | 972 nM | O=C(CCc1ccccc1)c1ccc(OCC(O)CN2CCCCC2)cc1 (stereo not drawn)
17 | 915 nM | CC(C)N(CC(O)COc1ccc(C(=O)CCc2ccccc2)cc1)C(C)C (stereo not drawn)
18 | 14300 nM | CCC(=O)c1ccccc1OCC(O)CN1CCCCC1 (stereo not drawn)
19 | 610 nM | O=C(CCc1ccccc1)c1ccccc1OCC(O)CN1CCN(c2ccccc2)CC1 (stereo not drawn)
20 | 1810 nM | COC(CCc1ccccc1)c1ccccc1OCC(O)CN1CCOCC1 (stereo not drawn)
21 | 49000 nM | CC(=O)c1ccc(OCC(O)CN2CCCCC2)cc1 (stereo not drawn)
22 | 110 nM | CCCNCC(O)COc1ccc(OCc2ccccc2)cc1C(=O)CCc1ccccc1 (stereo not drawn)
23 | 3200 nM | CC(=O)c1ccccc1OCC(O)CN1CCC(O)(c2ccccc2)CC1 (stereo not drawn)

Row | EC50 | SMILES
24 | 1730 nM | O=C(CCc1ccccc1)c1cc(O)ccc1OCC(O)CN1CCCCC1 (stereo not drawn)
25 | 723 nM | O=C(CCc1cccc2ccccc12)c1ccccc1OCC(O)CNCCC(c1ccccc1)c1ccccc1 (stereo not drawn)
26 | 2540 nM | O=C(CCc1ccccc1)c1ccc(OCC(O)CN2CCN(c3ccc(F)cc3)CC2)cc1 (stereo not drawn)
27 | 147 nM | O=C(c1ccccc1)c1ccccc1OCC(O)CN1CCN(c2ccc(F)cc2)CC1 (stereo not drawn)
28 | 6470 nM | O=C(CCc1ccccc1)c1ccccc1OCC(O)CNc1ccccc1 (stereo not drawn)
29 | 1040 nM | CC(C)N(CC(O)COc1ccc(O)cc1C(=O)CCc1ccccc1)C(C)C (stereo not drawn)
30 | 128000 nM | CC(=O)c1cccc(OCC(O)CN2CCOCC2)c1 (stereo not drawn)
31 | 312000 nM | CCOCCOC(=O)c1ccc(N)cc1
32 | 20900 nM | COc1ccc(C2Nc3ccccc3C(=O)N2c2ccc(NC(C)=O)cc2)cc1 (stereo not drawn)
33 | 3500 nM | C=CCn1c(SCCCC)nc2c(c1=O)C1(CCCC1)Cc1ccccc1-2
34 | 280 nM | CC(=O)c1c(C)cc(C)c(CSc2nc3ccc(NC(=O)c4ccc(C(C)(C)C)cc4)cc3s2)c1C
35 | 8770 nM | CCOc1ccccc1NC(=O)C1=C(C)NC(=S)NC1c1cccs1 (stereo not drawn)
36 | 17700 nM | CCOC(=O)C(=NNc1c(Cl)cc(Cl)cc1Cl)C(=O)OCC
37 | 296 nM | COc1ccc(C(=O)CCc2ccccc2)c(OCC(O)CN2CCN(c3ccccc3C)CC2)c1 (stereo not drawn)
38 | 859 nM | COc1ccc(OCC(O)CN2CCN(c3ccccc3C)CC2)c(C(C)=O)c1 (stereo not drawn)
39 | 110 nM | CC(=O)c1c(C)cc(C)c(CSc2nc3ccc(NC(=O)c4cccc5ccccc45)cc3s2)c1C
40 | 3480 nM | O=C(CCc1ccccc1)c1cccc(OCC(O)CN2CCOCC2)c1 (stereo not drawn)
41 | 19 nM | Cc1ccccc1N1CCN(CC(O)COc2ccccc2C(=O)CCc2ccc(Cl)cc2)CC1 (stereo not drawn)
42 | 242 nM | O=C(CCc1ccccc1)c1ccccc1OCCCCCN1CCCCC1
43 | 13 nM | Cc1ccccc1N1CCN(CC(O)COc2ccccc2C(=O)CCc2ccc(N(C)C)cc2)CC1 (stereo not drawn)
44 | 25100 nM | CCOc1ccc(N2C(=O)c3ccccc3NC2c2ccc(N(C)C)cc2)cc1 (stereo not drawn)
45 | 207000 nM | CC(=O)c1ccccc1OCC(O)CN1CCOCC1 (stereo not drawn)
46 | 102000 nM | COc1cccc(/C=N/NC(=O)C(=O)NC(C)(C)C)c1O

Row | EC50 | SMILES
47 | > 100000 nM | CCc1ccc(N2C(=O)c3ccccc3NC2c2ccc(OCc3ccccc3)cc2)cc1 (stereo not drawn)
48 | > 500000 nM | Cn1cc(I)c(C(=O)NNC(=O)c2ccnn2C)n1
49 | 1000 nM | COc1ccc(C2Nc3ccccc3C(=O)N2c2ccc(Oc3ccccc3)cc2)cc1 (stereo not drawn)
50 | 159000 nM | O=C(N/N=C/c1c(F)cccc1Cl)C(=O)N1CCCCCC1
51 | 104000 nM | CC1c2ccccc2OC1C(=O)N1CCCCC1 (stereo not drawn)
52 | 6660 nM | O=C(C1Oc2ccccc2C1CCc1ccccc1)N1CCCCC1 (stereo not drawn)
53 | 300 nM | CC(=O)c1c(C)cc(C)c(CSc2nc3ccc(NC(=O)CCc4ccccc4)cc3s2)c1C
54 | 178 nM | CC(=O)c1ccc(OCC(O)CNCCC(c2ccccc2)c2ccccc2)cc1 (stereo not drawn)
55 | 259 nM | O=C(CCc1ccccc1)c1ccccc1OCC(O)CN1CCC(Cc2ccccc2)CC1 (stereo not drawn)
56 | 179 nM | O=C(CCc1ccccc1)c1ccccc1OCCCCCCCN1CCCCC1
57 | 18 nM | Cc1ccc(CCC(=O)c2ccccc2OCC(O)CN2CCN(c3ccccc3C)CC2)cc1 (stereo not drawn)
58 | 137 nM | O=C(CCc1ccccc1)c1ccccc1OCCCCCCCCN1CCCCC1
59 | 74 nM | Cc1ccccc1N1CCN(CC(O)COc2cccc(C(=O)CCc3ccccc3)c2)CC1 (stereo not drawn)
60 | 3080 nM | Cc1ccc(-c2n[nH]c3c2C(c2ccc(N(C)C)cc2)C(C#N)=C(N)O3)cc1 (stereo not drawn)
61 | 1060 nM | CCCNC[C@H](O)c1oc2ccccc2c1CCc1ccccc1
62 | 752 nM | COC(CCc1ccccc1)c1ccccc1OCC(O)CNCCC(c1ccccc1)c1ccccc1 (stereo not drawn)
63 | 357 nM | CC(=O)c1ccccc1OCC(O)CN1CCC(Cc2ccccc2)CC1 (stereo not drawn)
64 | 190 nM | O=C(CCc1ccccc1)c1cccc(OCC(O)CNCCC(c2ccccc2)c2ccccc2)c1 (stereo not drawn)
65 | 137 nM | Cc1cccc(N2CCN(CC(O)COc3cccc(C(=O)CCc4ccccc4)c3)CC2)c1C (stereo not drawn)
66 | 1450 nM | O=C(CCc1ccccc1)c1ccccc1OCCN1CCCCC1
67 | 10400 nM | O=C(CCc1ccccc1)c1ccccc1OCC(O)CN(C(c1ccccc1)c1ccccc1)C(c1ccccc1)c1ccccc1 (stereo not drawn)
68 | 1210 nM | CCc1ccc(N2C(=O)c3ccccc3NC2c2ccc(OCC(C)C)cc2)cc1 (stereo not drawn)
69 | 1620 nM | c1ccc(CCC2c3ccccc3OC2CN2CCCCC2)cc1 (stereo not drawn)

Row | EC50 | SMILES
70 | 730 nM | CC(C)(C)c1ccc(N2C(=O)c3ccccc3NC2c2ccc3c(c2)OCO3)cc1 (stereo not drawn)
71 | > 20000 nM | CC(C)(C)c1ccc(C(=O)Nc2ccc3nc(SCc4cccc5ccccc45)sc3c2)cc1
72 | > 50000 nM | CC(C)(C)c1ccc(CSc2nc3ccc(NC(=O)c4ccc(C(C)(C)C)cc4)cc3s2)cc1
73 | > 250000 nM | COc1ccc(-n2c(C3=NNC(=O)CC3)n[nH]c2=S)cc1
74 | 5940 nM | Clc1ccccc1-c1nc(N2CCCC2)c2ccccc2n1
75 | 70 nM | O=C(CCc1ccccc1)c1ccccc1OCC(O)CN1CCN(c2ccc(F)cc2)CC1 (stereo not drawn)
76 | 599 nM | O=C(CCc1ccccc1)c1ccccc1OCC(O)CN1CCCCC1 (stereo not drawn)
77 | 172 nM | O=C(CCc1cccc2ccccc12)c1ccccc1OCC(O)CN1CCCCC1 (stereo not drawn)
78 | 717 nM | O=C(CCc1ccccc1)c1ccccc1OCC(O)CNCCC(c1ccccc1)c1ccccc1 (stereo not drawn)
79 | 172 nM | O=C(CCc1ccccc1)c1cc(OCc2ccccc2)ccc1OCC(O)CN1CCCCC1 (stereo not drawn)
80 | 659 nM | O=C(CCc1ccccc1)c1ccccc1OCC(O)CN1CCN(Cc2ccccc2)CC1 (stereo not drawn)
81 | 1740 nM | CC(C)N(CC(O)COc1ccccc1C(O)CCc1ccccc1)C(C)C (stereo not drawn)
82 | 177 nM | COc1ccccc1N1CCN(CC(O)c2oc3ccccc3c2CCc2ccccc2)CC1 (stereo not drawn)
83 | 230 nM | COc1ccccc1N1CCN(CC(O)COc2ccccc2C(=O)CCc2ccccc2)CC1 (stereo not drawn)
84 | 901 nM | OC(COc1ccccc1C(O)CCc1ccccc1)CN1CCCCC1 (stereo not drawn)
85 | 9540 nM | OC(COc1ccccc1C(O)CCc1ccccc1)CN1CCOCC1 (stereo not drawn)
86 | 40 nM | COc1ccc(C(=O)CCc2ccc(N(C)C)cc2)c(OCC(O)CN2CCN(c3ccccc3C)CC2)c1 (stereo not drawn)
87 | 537 nM | CC(=O)c1cccc(OCC(O)CN2CCN(c3ccccc3C)CC2)c1 (stereo not drawn)
88 | 505 nM | O=C(CCc1ccccc1)c1ccc(OCC(O)CNCCC(c2ccccc2)c2ccccc2)cc1 (stereo not drawn)
89 | 227 nM | Cc1cccc(N2CCN(CC(O)COc3ccc(C(=O)CCc4ccccc4)cc3)CC2)c1C (stereo not drawn)
90 | 48900 nM | CC1c2ccccc2OC1CN1CCCCC1 (stereo not drawn)
91 | 980 nM | c1ccc(CCc2c(CCN3CCCCC3)oc3ccccc23)cc1
92 | 820 nM | CCC(C)c1ccc(C2Nc3ccccc3C(=O)N2c2ccc(Cl)cc2)cc1 (stereo not drawn)

Row | EC50 | SMILES
93 | 290 nM | CCC(C)c1ccc(N2C(=O)c3ccccc3NC2c2ccc(C(C)C)cc2)cc1 (stereo not drawn)
94 | > 500000 nM | COc1ccc(CC(O)CO)cc1OC (stereo not drawn)
95 | 533 nM | O=C(CCc1ccccc1)c1ccccc1OCCCCN1CCCCC1
96 | 651 nM | O=C(CCc1ccccc1)c1ccccc1OCCCN1CCCCC1
97 | 97 nM | CCCCOc1ccc(C(=O)Nc2ccc3nc(SCc4c(C)cc(C)c(C(C)=O)c4C)sc3c2)cc1
98 | 158000 nM | Cc1cc(C)n(-c2nnc(N/N=C\c3cccnc3)nn2)n1
99 | 760 nM | CCC(C)c1ccc(N2C(=O)c3ccccc3NC2c2ccc(OC)cc2)cc1 (stereo not drawn)
100 | 416 nM | CCCN(C)CC(O)COc1ccccc1C(=O)CCc1ccccc1 (stereo not drawn)
101 | > 100000 nM | CN(C)c1ccc(-c2nc(C(F)(F)F)nc(C(F)(F)F)n2)cc1
102 | 1100 nM | CCCNC[C@@H](O)c1oc2ccccc2c1CCc1ccccc1
103 | 203 nM | O=C(CCc1ccccc1)c1ccccc1OCCCCCCN1CCCCC1
104 | 460 nM | CC(C)OC(CCc1ccccc1)c1ccccc1OCC(O)CN1CCCCC1 (stereo not drawn)
105 | 32000 nM | CC(=O)c1ccccc1OCC(O)CN1CCCCC1 (stereo not drawn)
106 | 2320 nM | CCN(CC)CC(O)COc1ccccc1C(=O)c1ccccc1 (stereo not drawn)
107 | 907 nM | CCN(CC)CC(O)COc1ccccc1C(=O)CCc1ccccc1 (stereo not drawn)
108 | 256 nM | COc1ccc(N2CCN(CC(O)COc3ccccc3C(=O)CCc3ccccc3)CC2)cc1 (stereo not drawn)
109 | 3650 nM | O=C(CCc1ccccc1)c1ccccc1OCC(O)CN1CCOCC1 (stereo not drawn)
110 | 27 nM | Cc1ccccc1N1CCN(CC(O)COc2ccccc2C(=O)CCc2ccccc2)CC1 (stereo not drawn)
111 | 377 nM | CC(C)N(CC(O)COc1ccccc1C(=O)CCc1ccccc1)C(C)C (stereo not drawn)

Row | SMILES | EC50
112 | O=C(c1ccccc1)c1ccccc1OCC(O)CN1CCC(O)(c2ccccc2)CC1 (stereo not drawn) | 307 nM
113 | O=C(CCc1ccccc1)c1ccccc1OCC(O)CN1CCC(O)(c2ccccc2)CC1 (stereo not drawn) | 58 nM
